In publication PMC5358534, “Optical control of AMPA receptors using a photoswitchable quinoxaline-2,3-dione antagonist” (Chemical Science, 2016):

Assays:
[1] = molecular target: T1, GluA1 (GluA1-containing receptors) (Rattus norvegicus, UniProt P19490); experiment: Xenopus oocyte currents, […] kainic acid, […] ShuBQX-3 in the dark ([…] antagonism); format: cell-based
T1 construct: gene Gria1; GluA1-containing receptors expressed in Xenopus oocytes

[2] = molecular target: T2, GluK2 receptor (Rattus norvegicus, UniProt P42260); experiment: Xenopus oocyte currents, […] ShuBQX-3 in the dark; […] antagonism at […] glutamate, […] at […] glutamate; format: cell-based; conditions: read-out: % antagonism at 5 μM (30 μM glutamate)
T2 construct: gene Grik2; GluK2-containing receptors expressed in Xenopus oocytes
T2 sequence (P42260 32-908): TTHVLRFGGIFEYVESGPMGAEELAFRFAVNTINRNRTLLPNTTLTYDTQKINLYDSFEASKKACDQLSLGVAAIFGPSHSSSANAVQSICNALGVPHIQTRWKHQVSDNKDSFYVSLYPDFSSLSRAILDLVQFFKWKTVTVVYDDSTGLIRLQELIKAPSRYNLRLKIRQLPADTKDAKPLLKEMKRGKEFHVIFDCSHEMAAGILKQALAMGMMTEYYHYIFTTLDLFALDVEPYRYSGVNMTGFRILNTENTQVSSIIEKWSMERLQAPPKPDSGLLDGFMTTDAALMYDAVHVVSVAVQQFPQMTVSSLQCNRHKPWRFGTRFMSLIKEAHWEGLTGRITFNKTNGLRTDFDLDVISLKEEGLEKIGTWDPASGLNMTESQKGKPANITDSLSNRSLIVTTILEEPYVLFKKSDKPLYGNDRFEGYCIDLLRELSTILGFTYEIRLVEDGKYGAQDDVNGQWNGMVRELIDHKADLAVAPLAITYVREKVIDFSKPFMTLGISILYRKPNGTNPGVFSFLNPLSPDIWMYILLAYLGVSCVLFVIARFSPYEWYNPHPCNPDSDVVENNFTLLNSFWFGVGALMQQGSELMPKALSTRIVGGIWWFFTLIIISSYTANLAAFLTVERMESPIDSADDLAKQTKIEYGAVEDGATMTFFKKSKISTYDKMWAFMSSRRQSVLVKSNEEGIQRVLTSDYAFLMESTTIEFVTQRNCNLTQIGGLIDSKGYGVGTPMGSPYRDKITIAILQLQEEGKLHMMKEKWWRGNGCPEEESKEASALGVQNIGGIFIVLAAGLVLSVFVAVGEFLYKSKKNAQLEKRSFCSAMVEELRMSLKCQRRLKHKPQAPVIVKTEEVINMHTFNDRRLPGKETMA

T1 sequence (P19490 19-907): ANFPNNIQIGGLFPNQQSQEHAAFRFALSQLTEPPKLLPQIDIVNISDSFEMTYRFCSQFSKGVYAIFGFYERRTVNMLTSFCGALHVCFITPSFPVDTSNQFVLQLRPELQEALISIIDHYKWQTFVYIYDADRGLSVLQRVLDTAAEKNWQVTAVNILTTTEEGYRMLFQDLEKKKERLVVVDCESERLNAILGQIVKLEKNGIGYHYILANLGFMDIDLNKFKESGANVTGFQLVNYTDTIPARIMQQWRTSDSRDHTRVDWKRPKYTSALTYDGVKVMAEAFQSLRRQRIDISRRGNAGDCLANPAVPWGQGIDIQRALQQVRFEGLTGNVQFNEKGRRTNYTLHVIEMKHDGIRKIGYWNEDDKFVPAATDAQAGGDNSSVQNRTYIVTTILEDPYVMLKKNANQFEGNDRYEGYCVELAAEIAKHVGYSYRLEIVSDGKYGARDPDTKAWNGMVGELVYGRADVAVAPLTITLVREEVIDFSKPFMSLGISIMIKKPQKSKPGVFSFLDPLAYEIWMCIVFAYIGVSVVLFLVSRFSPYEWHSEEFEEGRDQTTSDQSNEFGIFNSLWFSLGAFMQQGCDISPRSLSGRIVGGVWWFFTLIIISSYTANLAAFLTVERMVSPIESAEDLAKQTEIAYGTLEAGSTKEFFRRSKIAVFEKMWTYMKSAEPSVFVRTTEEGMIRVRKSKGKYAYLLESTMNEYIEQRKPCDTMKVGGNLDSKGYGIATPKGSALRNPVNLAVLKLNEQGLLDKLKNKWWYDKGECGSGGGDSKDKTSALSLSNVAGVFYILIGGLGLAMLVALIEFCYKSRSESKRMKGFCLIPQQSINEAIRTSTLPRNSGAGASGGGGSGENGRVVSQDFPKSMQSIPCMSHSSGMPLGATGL

inhibition at 5 µM [1]: 85 to 93%
inhibition at 5 µM [2]: 49%
Compound: O=c1[nH]c2cc(C(F)(F)F)c(/N=N/c3ccccc3)cc2n(CP(=O)(O)O)c1=O [ShuBQX-3]
